Legend:
[1] = test system: Flkd6 cardiomyocytes whose differentiation was induced from EMG-7; assay: Influence on cell cycle: cells positive for pH3 (M phase) or EdU (S phase) in Flkd6; assay type: cell-based, mouse; details: Flkd6 cultured with agent; FIG. 2
Experimental: DMSO is a control wherein only a solvent was added.
In order to examine the influence on the cell cycle, the number of cells positive for phosphorylation of histone 3 (pH3) (M phase) or ethynyl […] (EdU) (S phase) was assayed (FIG. 2a-d).

[2] = test system: Flkd6 cardiomyocytes whose differentiation was induced from mouse ES cells EMG-7; assay: Proliferation of mouse ES cell (EMG-7)-derived cardiomyocytes Flkd6: number of alpha-MHC-GFP-positive cells; assay type: cell-based; details: for number of alpha-MHC-GFP-positive cells after addition (screening): Flkd6 purified by FACS, cultured for 5 days, 1 μM BIO, 5 μM SU1498, 5 μM KN93, FIG. 1a; for number of alpha-MHC-GFP-positive cells by FACS: cultured for 2 days (Flkd6+2) or 5 days (Flkd6+5), especially Flkd6+5, FIG. 1b; for cardiomyocyte-proliferation-promoting effect (number of alpha-MHC-GFP-positive cells per well): Flkd6+5, FIGS. 3a, 3b, 3d
Experimental: The human iPS cells (253G1) were provided by Prof. […] 253G1 cells are available from RIKEN BRC.
Thereafter, Flk1-positive cells were separated using FACS, and the separated cells were cultured on OP9 cells using a 3 μg/ml Cyclosporine A-containing medium (alpha MEM supplemented with 10% FBS) for 6 days, to induce differentiation into cardiomyocytes. These cells are hereinafter referred to as Flkd6.
The above-mentioned Flkd6, obtained by differentiation of EMG-7, was subjected to purification by FACS using alpha-MHC-GFP as an index. […] These three agents were added to Flkd6, and the cells were then cultured for 2 days (Flkd6+2) or 5 days (Flkd6+5), followed by measuring the number of alpha-MHC-GFP-positive cells by FACS.

Compound	influence on the cell cycle: pH3 (M phase) or EdU (S phase) positive cells [1]	number of alpha-MHC-GFP-positive cells after addition (screening) [2]	number of alpha-MHC-GFP-positive cells by FACS [2]	cardiomyocyte-proliferation-promoting effect (number of alpha-MHC-GFP-positive cells per well) [2]
O=C1Nc2cc(Br)ccc2/C1=C1/Nc2ccccc2/C1=N\O [BIO, 6-bromoindirubin 3′-oxime]	promotes the S phase and the M phase from the early stage after its addition	significantly increased the number of alpha-MHC-GFP-positive cells	significant increase in the number of the positive cells	–
Cc1c[nH]c(-c2cnc(NCCNc3ccc(C#N)cn3)nc2-c2ccc(Cl)cc2Cl)n1 [CHIR99021]	–	–	–	also have similar effects
CN([C@@H](Cc1ccc(OS(=O)(=O)c2cccc3cnccc23)cc1)C(=O)N1CCN(c2ccccc2)CC1)S(=O)(=O)c1cccc2cnccc12 [KN62, 1-[N,O-bis(5-isoquinolinesulfonyl)-N-methyl-L-tyrosyl]-4-phenylpiperazine]	–	–	–	also have similar effects
COc1ccc(S(=O)(=O)N(CCO)c2ccccc2CN(C)CC=Cc2ccc(Cl)cc2)cc1 [KN93]	–	significantly increased the number of alpha-MHC-GFP-positive cells	significant increase in the number of the positive cells	–
CC(C)c1cc(/C=C(\C#N)C(=O)NCCCc2ccccc2)cc(C(C)C)c1O [SU1498, (E)-3-(3,5-diisopropyl-4-hydroxyphenyl)-2-[(3-phenyl-n-propyl)aminocarbonyl]acrylonitrile]	–	significantly increased the number of alpha-MHC-GFP-positive cells	significant increase in the number of the positive cells	–
Cc1ccc(NC(=O)c2cccc(N(C)C)c2)cc1NC(=O)c1ccc(O)cc1 [ZM336372, 3-(dimethylamino)-N-[3-[(4-hydroxybenzoyl)amino]-4-methylphenyl]benzamide]	–	–	–	has a cardiomyocyte-proliferation-promoting effect

From patent US9074188B2, “Cardiomyocyte- and/or cardiac progenitor cell-proliferating agent and method for proliferating cardiomyocytes and/or cardiac progenitor cells” (KYOTO UNIVERSITY, priority 2010, dated 2015)
